The record followed here is ChEMBL document CHEMBL6074649, “An insight into recent developments in imidazole based heterocyclic compounds as anticancer agents: Synthesis, SARs, and mechanism of actions” (Eur J Med Chem, 2024).

Series [1] is described as follows: Growth inhibition of human Colon cancer cell line. Format: functional.
Series [2] is described as follows: Growth inhibition of human Melanoma cell. Type of series: functional.
Series [3] can be described thus: Growth inhibition of human Non-small cell lung cancer cell line. Type of series: functional.
A further series deals with Leukemia cell. The series can be described thus: Growth inhibition of human Leukemia cell. Format: functional.
The next series relates to CNS carcinoma cell. The series can be described thus: Growth inhibition of human CNS carcinoma cell. Format: functional.
Series [4] concerns MCF7. The series can be described thus: Anticancer activity against human MCF7 cells at 1.5 uM relative to control. Type of series: functional.
In series [5] the test system is MCF7. The experiment in a line: Anticancer activity against human MCF7 cells at 31.25 uM relative to control. Format: functional.
Series [6] has as its system MCF7. The series can be described thus: Anticancer activity against human MCF7 cells at 125 uM relative to control. Format: functional.
Series [7] has as its system MCF7. The experiment in a line: Anticancer activity against human MCF7 cells at 7.8 uM relative to control. Type of series: functional.
Series [8] relates to MCF7. The experiment in a line: Anticancer activity against human MCF7 cells at 15.6 uM relative to control. Type of series: functional.
Series [9] relates to MCF7. The series can be described thus: Anticancer activity against human MCF7 cells at 62.5 uM relative to control. Type of series: functional.
Series [10] has as its system MCF7. The experiment in a line: Anticancer activity against human MCF7 cells at 3.9 uM relative to control. Type of series: functional.
Series [11] relates to MCF7. The series can be described thus: Anticancer activity against human MCF7 cells at 1.9 uM relative to control. Format: functional.
Series [12] has as its system MCF7. The experiment in a line: Anticancer activity against human MCF7 cells at 500 uM relative to control. Format: functional.
Series [13] deals with A549. The series can be described thus: Cytotoxicity against human A549 cells assessed as reduction in cell viability by MTT assay. Format: functional, cell-based.
Another series concerns A2780. The experiment in a line: Cytotoxicity against human A2780 cells assessed as reduction in cell viability by MTT assay. Type of series: functional, cell-based.
Series [14] concerns MCF7. The series can be described thus: Cytotoxicity against human MCF7 cells assessed as reduction in cell viability by MTT assay. Type of series: functional, cell-based.
Another series has as its system COLO 205. The series can be described thus: Cytotoxicity against human COLO 205 cells assessed as reduction in cell viability by MTT assay. Format: functional, cell-based.
The test system of series [15] is MCF7. The experiment in a line: Cytotoxicity against human MCF7 cells assessed as reduction in cell growth measured for 24 hrs by MTT assay. Type of series: functional, cell-based. Particulars: MCF7, 24 h.
Series [16] has as its system HepG2. The series can be described thus: Cytotoxicity against human HepG2 cells assessed as reduction in cell growth incubated for 24 hrs by MTT assay. Particulars: HepG2, 24 h. Format: functional, cell-based.
Another series deals with Caco-2. The series can be described thus: Cytotoxicity against human Caco-2 cells assessed as reduction in cell growth measured for 24 hrs by MTT assay. Type of series: functional, cell-based. Particulars: Caco-2, 24 h.
The subject of a further series is L02. The series can be described thus: Antiproliferative activity against human LO2 cells assessed as reduction in cell growth by MTT assay. Type of series: functional, cell-based.
Series [17] in a line: Antiproliferative activity against human HepG2 cells assessed as reduction in cell growth by MTT assay. Type of series: toxicity, cell-based.
Another series relates to MDA-MB-231. The series can be described thus: Antiproliferative activity against human MDA-MB-231 cells assessed as reduction in cell growth by MTT assay. Type of series: functional, cell-based.
Series [18] is described as follows: Antiproliferative activity against human MCF-10A cells assessed as reduction in cell growth by MTT assay. Type of series: toxicity, cell-based.
Series [19] concerns MCF7. The experiment in a line: Cytotoxicity against human MCF7 cells assessed as reduction in cell growth incubated for 24 hrs by SRB assay. Particulars: MCF7, 24 h. Type of series: functional, cell-based.
Series [20] concerns HepG2. The experiment in a line: Cytotoxicity against human HepG2 cells assessed as reduction in cell growth incubated for 24 hrs by SRB assay. Type of series: functional, cell-based. Particulars: HepG2, 24 h.
In the next series the test system is AGS. The experiment in a line: Antiproliferative activity against human AGS cells assessed as reduction in cell viability incubated for 24 hrs by MTT assay. Format: functional, cell-based.
Series [21] can be described thus: Antiproliferative activity against human MRC5 cells assessed as reduction in cell viability incubated for 24 hrs by MTT assay. Format: toxicity, cell-based.
The test system of series [22] is A549. The series can be described thus: Antiproliferative activity against human A549 cells assessed as reduction in cell viability incubated for 24 hrs by MTT assay. Type of series: functional, cell-based. Particulars: A549, 24 h.
The test system of series [23] is HeLa. The series can be described thus: Antiproliferative activity against human HeLa cells assessed as reduction in cell growth incubated for 48 hrs by MTT assay. Type of series: functional, cell-based.
A further series has as its system K562. The experiment in a line: Antiproliferative activity against human K562 cells assessed as reduction in cell growth incubated for 48 hrs by MTT assay. Type of series: functional, cell-based. Particulars: K562, 48 h.
Series [24] can be described thus: Anticancer activity against HEK293 cells assessed as reduction in cell viability incubated for 48 hrs by MTT assay. Type of series: toxicity, cell-based. Particulars: human.
The subject of the next series is IMR-32. The series can be described thus: Anticancer activity against human IMR-32 cells assessed as reduction in cell viability incubated for 48 hrs by MTT assay. Type of series: functional, cell-based. Particulars: IMR-32, 48 h.
Series [25] deals with A549. The experiment in a line: Anticancer activity against human A549 cells assessed as reduction in cell viability incubated for 48 hrs by MTT assay. Particulars: A549, 48 h. Type of series: functional, cell-based.
Series [26] has as its system HeLa. The experiment in a line: Anticancer activity against human HeLa cells assessed as reduction in cell viability incubated for 48 hrs by MTT assay. Format: functional, cell-based.

On to `Oc1ccc(-n2cnc(-c3cc(O)cc(O)c3)c2)cc1`, for which the concentration for 50% growth inhibition (GI50) in [1] came to 11.5 µM; in [2] it was 12.9 µM; in series [3], 28.8 µM; in the series with Leukemia cell it was 4.1 µM; in the series with CNS carcinoma cell, 11.5 µM.

`Fc1ccc(Cn2c(-c3ccc(Br)cc3)nc(-c3ccccc3)c2-c2ccccc2)cc1`: in the series on MCF7 [4], the inhibition at 1.5 µM was 84%. Also, 31.25 µM produced 30% inhibition in the series on MCF7 [5]. In addition, the inhibition at 125 µM with MCF7 [6] came to 20%. In the series with MCF7 [7], the inhibition at 7.8 µM is 63%. This molecule registered an inhibition at 15.6 µM with MCF7 [8] of 36%. In addition, the inhibition at 62.5 µM in the series on MCF7 [9] came to 24%. The same molecule returned an inhibition at 3.9 µM with MCF7 [10] of 69%. The same molecule gave an inhibition at 1.9 µM in the series on MCF7 [11] of 75%. For the same molecule, at 500 µM the inhibition in the series with MCF7 [12] was 5%.

For `O=[N+]([O-])c1cccc(S(=O)(=O)n2ccnc2-c2ccon2)c1`, the IC50 amounted to 1.14 µM with A549 [13], 0.63 µM in the series on A2780, 1.03 µM in the series on MCF7 [14] and 1.9 µM with COLO 205.

Consider `c1ccc(-c2nc(-c3ccc(OCc4cc(COc5ccc(-c6nc(-c7ccccc7)c(-c7ccccc7)[nH]6)cc5)c(COc5ccc(-c6nc(-c7ccccc7)c(-c7ccccc7)[nH]6)cc5)cc4COc4ccc(-c5nc(-c6ccccc6)c(-c6ccccc6)[nH]5)cc4)cc3)[nH]c2-c2ccccc2)cc1`, for which the figures for the IC50 in the series on MCF7 [15], in the series with HepG2 [16] and in the series on Caco-2 were 12.6 µM, 19.1 µM and 34.8 µM, respectively.

Regarding `Brc1ccc(-c2nc(-c3ccccc3)c(-c3ccccc3)[nH]2)cn1`, the half-inhibitory concentration (IC50) was 22 µM in the series with L02, 26.7 µM in [17], 17.8 µM in the series with MDA-MB-231 and 36.8 µM in series [18].

`CC[C@]1(O)C[C@@H]2CN(CCc3c([nH]c4ccccc34)[C@@](C(=O)OC)(c3cc4c(cc3OC)N(C)[C@H]3[C@@](O)(C(=O)OC)[C@H](OC(C)=O)[C@]5(CC)C=CCN6CC[C@]43[C@@H]65)C2)C1.O=S(=O)(O)O` [VINBLASTINE SULFATE]: the IC50 was found to be 5.7 mg/L in the series on MCF7 [19] and 4.6 mg/L with HepG2 [20].

In the series with Leukemia cell, `Cc1nc(SCC(=O)Nc2nc(-c3ccc(Cl)cc3)cs2)n(Nc2ccccc2)c1C` returned a GI50 of 3.08 µM.

For the molecule `COc1ccc(C(=O)/C=C/c2nccn2C)cc1`, the figures for the half-maximal inhibitory concentration (IC50) in the series on AGS and in the series with A549 [22] were 20.9 µM and 61.7 µM, respectively. The IC50 at 24 h in series [21] worked out at 67.4 µM.

Take `COc1cc([C@@H]2c3cc4c(cc3[C@@H](n3ccnc3)[C@H]3COC(=O)[C@H]23)OCO4)cc(OC)c1OC`: the IC50 in the series on HeLa [23] stood at 5.22 µM; with K562, 2.88 µM.

Consider `COc1ccc(C(=O)/C=C/c2nc3ccccc3n2C)cc1`, for which the half-inhibitory concentration (IC50) in the series on AGS was 15.1 µM; in the series on A549 [22], 68.1 µM. In addition, the IC50 at 24 h in [21] worked out at 45.9 µM.

With `O=c1c(-c2nc(-c3ccc(Br)cc3)c(-c3ccc(Br)cc3)[nH]2)coc2ccccc12`, the 50% inhibitory concentration (IC50) at 48 h in series [24] was determined as 82.3 µM. The IC50 in the series on IMR-32 turned out to be 29.4 µM; in the series on A549 [25] it was 27.1 µM; in the series with HeLa [26], 24.7 µM.

As for `c1coc(-c2nc(-c3ccc(OCCCOc4ccc(-c5nc(-c6ccco6)c(-c6ccco6)[nH]5)cc4)cc3)[nH]c2-c2ccoc2)c1`, the concentration for half-maximal inhibition (IC50) in the series on MCF7 [15] was 59.2 µM; in the series with HepG2 [16], 8.14 µM; in the series with Caco-2 it was 327 µM.

On to `COc1cc([C@@H]2c3cc4c(cc3[C@@H](O[C@@H]3O[C@@H]5CO[C@@H](C)O[C@H]5[C@H](O)[C@H]3O)[C@H]3COC(=O)[C@H]23)OCO4)cc(OC)c1O` [ETOPOSIDE], for which the IC50 in the series with HeLa [23] is 2.99 µM; with K562 it was 6 µM; with A2780, 1.31 µM; with MCF7 [14], 2.11 µM; in the series on COLO 205, 0.13 µM.

On to `O=[N+]([O-])c1ccccc1-c1nc(-c2ccc(Br)cc2)c(-c2ccc(Br)cc2)[nH]1`, for which the concentration for half-maximal inhibition (IC50) at 48 h in series [24] amounted to 94.3 µM. Besides, the 50% inhibitory concentration (IC50) worked out at 10.3 µM in the series with IMR-32, 12.5 µM in the series on A549 [25] and 13.6 µM in the series on HeLa [26].

`Clc1ncccc1-c1nc(-c2ccccc2)c(-c2ccccc2)[nH]1`: the IC50 with L02 was above 50 µM; in [17], 19.7 µM; in the series with MDA-MB-231 it was 24.1 µM; in [18], above 50 µM.
